Experiments:
[1] = biological target: Serotonin 3 (5-HT3) receptor; experiment: Binding affinity for the 5-hydroxytryptamine 3 receptor was evaluated in vitro by examining its ability to displace [3H]-BRL 43694.; assay type: protein-complex assay
[2] = biological target: Serotonin 3 (5-HT3) receptor (Homo sapiens) (UniProt P46098+A5X5Y0+O95264+Q70Z44+Q8WXA8); experiment: Tested for 5-hydroxytryptamine 3 receptor antagonist activity by inhibiting the 5-HT evoked Bezold-Jarisch reflex; assay type: functional

SMILES | Log Ki [1] | -Log ED50 [2]
CCOc1ccccc1NC(=O)NCCc1c[nH]cn1 | -7.35 | 7.2
COc1cc(F)ccc1NC(=O)NCCc1c[nH]cn1 | -7.39 | 7
COc1ccc(F)cc1NC(=O)NCCc1c[nH]cn1 | -7.69 | 7.4
COc1ccccc1NC(=O)NCCc1c[nH]cn1 | -7.55 | 7
NCCc1c[nH]c2ccc(O)cc12 |  | 7.4
COc1ccc(Cl)cc1NC(=O)NCCc1c[nH]cn1 | -8.86 | 6.8
Cn1nc(C(=O)NCCc2c[nH]cn2)c2ccccc21 | -7.84 | 6.9

Reference: ChEMBL document CHEMBL1127179, “Synthesis and 5-HT3 receptor agonist activity of arylureas derived from histamine” (Bioorg Med Chem Lett, 1993)
